How the values were obtained:
oncogene myc = test: Inhibition of oncogene MYC expression (Western Blot); assay type: cell-based; details: FIG. 4
[1] = test system: breast cancer cell strain MD231; test: Cancer cell growth inhibition / cell viability; assay type: cell-based; details: after 48 hours of drug administration
[2] = test system: lung cancer cell strain A549; test: Cancer cell growth inhibition / cell viability; assay type: cell-based; details: Homo sapiens, after 48 hours of drug administration
[3] = test system: breast cancer cell strain MD468; test: Cancer cell growth inhibition / cell viability; assay type: cell-based; details: after 48 hours of drug administration
[4] = test system: lung cancer cell strain H1299; test: Cancer cell growth inhibition / cell viability; assay type: cell-based; details: Homo sapiens, NCI-H1299, after 48 hours of drug administration
PAICS = molecular target: T1, PAICS (Homo sapiens, UniProt P22234); test: Inhibition of spermidine on PAICS activity (SAICAR accumulation); details: biochemical enzyme activity experiments and cell biology experiments
T1 sequence (P22234 1-425): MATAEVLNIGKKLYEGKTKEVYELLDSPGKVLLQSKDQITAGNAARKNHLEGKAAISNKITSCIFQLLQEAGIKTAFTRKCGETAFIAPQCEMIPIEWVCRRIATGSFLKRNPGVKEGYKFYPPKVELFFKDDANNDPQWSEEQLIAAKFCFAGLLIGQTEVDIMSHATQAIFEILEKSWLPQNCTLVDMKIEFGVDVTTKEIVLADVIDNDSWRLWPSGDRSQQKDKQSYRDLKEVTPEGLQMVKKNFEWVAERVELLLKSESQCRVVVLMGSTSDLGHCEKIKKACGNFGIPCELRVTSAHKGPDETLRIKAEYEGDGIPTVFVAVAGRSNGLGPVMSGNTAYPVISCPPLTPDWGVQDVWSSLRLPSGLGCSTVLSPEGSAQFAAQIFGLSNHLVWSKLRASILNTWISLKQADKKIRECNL
Description: The accumulation of toxic compound SAICAR is reduced by inhibiting the activity of PAICS.

[5] = test system: lung cancer cell strain PC9; test: Cancer cell growth inhibition / cell viability; assay type: cell-based; details: after 48 hours of drug administration

## NCCCCNCCCN [spermidine]
Oncogene myc
  expression of oncogene myc: significantly down-regulated
[1]
  IC50: 1.41 µM
[2]
  IC50: 52.1 µM
[3]
  IC50: 46.1 µM
[4]
  IC50: 21.1 µM
PAICS
  inhibition of the accumulation of SAICAR: up to 68.98%
[5]
  IC50: 23.4 µM
